Holding throughout (test): growth of human tumour cells (NCI), 48 h
For test [1], the system named is CAKI-1 renal.
The subject of test [2] is CCRF-CEM leukemia.
Test [3] relates to HOP-62 NSCLC.
Test [4] concerns IGROV1 ovarian.
Test [5] deals with LOX IMVI melanoma.
For test [6], the system named is OVCAR-8 ovarian.
Test [7] relates to RPMI-8226 leukemia.
In test [8] the test system is SF-295 CNS.
Test [9] relates to SK-MEL-5 melanoma.
In test [10] the test system is SNB-75 CNS.

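A five-concentration, 48-hour dose response in 96-well plates underlies each endpoint, interpolated linearly between surrounding concentrations. TGI: concentration producing complete growth inhibition.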

The record followed here is PubChem BioAssay (NCI).

For `CCC[C@H](C)C[C@H](C)C[C@H](C)/C=C(\C)[C@@H](O)[C@@H](C)C(=O)CC`, the TGI was determined as 37.4 µM in test [1]; 52.8 µM in test [2]; 35.2 µM in [3]; 36.2 µM in test [4]; 37.8 µM in test [5]; 39.4 µM in test [6]. Also, the TGI was 49 µM in test [7], 37.9 µM in test [8], 36.1 µM in [9] and more than 100 µM in [10].
